In patent US9745328B2, “Flap modulators” (JANSSEN PHARMACEUTICA NV, priority 2013, dated 2017) one finds Ki data, which are given here for 37 molecules.

Structures can show the parent of a compound that is named as a salt.

The term Ki denotes a dissociation constant, usually derived from enzyme kinetics or from competition with a known ligand.

human FLAP, sequence (P20292 whole entry): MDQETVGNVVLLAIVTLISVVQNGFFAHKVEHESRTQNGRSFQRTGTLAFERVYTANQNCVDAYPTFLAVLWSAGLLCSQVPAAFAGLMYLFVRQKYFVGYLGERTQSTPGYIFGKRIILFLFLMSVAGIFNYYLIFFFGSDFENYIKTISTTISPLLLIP

One assay concerns the target human FLAP (Homo sapiens (Human), UniProt P20292). Nature of the assay: FLAP binding assay (HTRF format). Conditions: Table 6 (additional runs), human FLAP wild type. In a few lines: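 Read-out is the HTRF ratio. Each reported figure averages two assay plates on which samples were tested in duplicate.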
Background: TR-FRET usually uses a lanthanide donor and a delayed reading to cut background.
The molecule `CC(C)(CCO)NS(=O)(=O)c1ccccc1-c1ccc(-c2cnc(N)cn2)c(F)c1` [Example 102, 4′-(5-Aminopyrazin-2-yl)-3′-fluoro-N-(3-hydroxy-1,1-dimethylpropyl)biphenyl-2-sulfonamide] had a Ki of 0.4 nM.

`CC[C@@H](CO)NS(=O)(=O)c1ccccc1-c1ccc(-c2cnc(N)nc2)c(F)c1` [Example 248, 4′-(2-Aminopyrimidin-5-yl)-3′-fluoro-N-[(1S)-1-(hydroxymethyl)propyl]biphenyl-2-sulfonamide] registered a Ki of 56.8 nM.

`CC(C)(C)[C@H](CO)NS(=O)(=O)c1ccccc1-c1ccc(-c2cnc(N)cn2)c(F)c1` [Example 150, (R)-4′-(5-aminopyrazin-2-yl)-3′-fluoro-N-(1-hydroxy-3,3-dimethylbutan-2-yl)-[1,1′-biphenyl]-2-sulfonamide]: the Ki was 1.5 nM.

Molecule `CNS(=O)(=O)c1ccccc1-c1ccc(-c2cnc(N)cn2)c(F)c1` [Example 15, 4′-(5-Aminopyrazin-2-yl)-3′-fluoro-N-methylbiphenyl-2-sulfonamide] gave a Ki of 11.1 nM.

The molecule `Nc1cnc(-c2ccc(-c3ccccc3S(=O)(=O)NCC3CC3)cc2F)cn1` [Example 90, 4′-(5-Aminopyrazin-2-yl)-N-(cyclopropylmethyl)-3′-fluorobiphenyl-2-sulfonamide] displayed a Ki of 0.9 nM.

Regarding `CC(C)CNS(=O)(=O)c1ccccc1-c1ccc(-c2cnc(N)nc2)c(F)c1` [Example 294, 4′-(2-Aminopyrimidin-5-yl)-3′-fluoro-N-(2-methylpropyl)biphenyl-2-sulfonamide trifiuoroacetic acid salt], the Ki turned out to be 2.4 nM.

For `CC(CO)(CO)NS(=O)(=O)c1ccccc1-c1ccc(-c2cnc(N)nc2)c(F)c1` [Example 255, 4′-(2-Aminopyrimidin-5-yl)-3′-fluoro-N-[2-hydroxy-1-(hydroxymethyl)-1-methylethyl]biphenyl-2-sulfonamide], the Ki is 8.1 nM.

As for `CC(C)(C)Sc1ccccc1-c1ccc(-c2cnc(N)cn2)c(F)c1` [Example 190, 5-[2′-(tert-Butylsulfanyl)-3-fluorobiphenyl-4-yl]pyrazin-2-amine], the Ki worked out at 66.2 nM.

`CN[C@@H]1CCN(S(=O)(=O)c2ccccc2-c2ccc(-c3cnc(N)cn3)c(F)c2)C1` [Example 126, (R)-5-(3-Fluoro-2′-{[3-(methylamino)pyrrolidin-1-yl]sulfonyl}biphenyl-4-yl)pyrazin-2-amine] showed a Ki of 141 nM.

`Nc1cnc(-c2ccc(-c3ccccc3S(=O)(=O)N[C@H](c3ccccc3)C(F)(F)F)cc2F)cn1` [Example 18]: affinity was put at a Ki of 1.8 nM.

In turn, `Nc1cnc(-c2ccc(-c3ccccc3S(=O)(=O)N[C@H]3CCCNC3=O)cc2F)cn1` [Example 108, (S)-4′-(5-aminopyrazin-2-yl)-3′-fluoro-N-(2-oxopiperidin-3-yl)-[1,1′-biphenyl]-2-sulfonamide] registered a Ki of 9.5 nM.

`Nc1cnc(-c2ccc(-c3ccccc3S(=O)(=O)N3CCCC(CCO)C3)cc2F)cn1` (racemic) [Example 71, racemic 2-(1-{[4′-(5-Aminopyrazin-2-yl)-3′-fluorobiphenyl-2-yl]sulfonyl}piperidin-3-yl)ethanol]: the affinity corresponds to a Ki of 1.9 nM.

Turning to `Nc1cnc(-c2ccc(-c3ccccc3S(=O)(=O)N3c4ccccc4C[C@H]3CO)cc2F)cn1` [Example 135, (S)-(1-{[4′-(5-Aminopyrazin-2-yl)-3′-fluorobiphenyl-2-yl]sulfonyl}-2,3-dihydro-1H-indol-2-yl)methanol], affinity was put at a Ki of 0.4 nM.

The molecule `Nc1ncc(-c2ccc(-c3ccccc3S(=O)(=O)N[C@H]3CCCNC3=O)cc2F)cn1` [Example 267, 4′-(2-Aminopyrimidin-5-yl)-3′-fluoro-N-[(3S)-2-oxopiperidin-3-yl]biphenyl-2-sulfonamide trifluoroacetic acid salt] had a Ki of 185 nM.

Turning to `CC1(NS(=O)(=O)c2ccccc2-c2ccc(-c3ccc(N)nc3)c(F)c2)CCC1` [Example 353, 4′-(6-aminopyridin-3-yl)-3′-fluoro-N-(1-methylcyclobutyl)-[1,1′-biphenyl]-2-sulfonamide], the Ki was determined as 1.4 nM.

`Nc1cnc(-c2ccc(-c3ccccc3S(=O)(=O)N3CCCC(F)(F)C3)cc2F)cn1` [Example 50, 5-{2′-[(3,3-Difluoropiperidin-1-yl)sulfonyl)-3-fluorobiphenyl-4-yl}pyrazin-2-amine] showed a Ki of 1.3 nM.

In turn, `CCN(CC)S(=O)(=O)c1ccccc1-c1ccc(-c2ccc(N)nc2)c(F)c1` [Example 343, 4′-(6-aminopyridin-3-yl)-N,N-diethyl-3′-fluoro-[1,1′-biphenyl]-2-sulfonamide] had a Ki of 4.3 nM.

Take `Nc1cnc(-c2ccc(-c3ccccc3SC(F)(F)F)cc2F)cn1` [Example 189, 5-{3-Fluoro-2′-[(trifluoromethyl)-sulfanyl]biphenyl-4-yl}pyrazin-2-amine]: the Ki was 63.2 nM.

On to `Nc1cnc(-c2ccc(-c3ccccc3S(=O)(=O)N[C@H]3CCCC[C@@H]3O)cc2F)cn1` (racemic) [Example 120, racemic (trans)-4′-(5-Aminopyrazin-2-yl)-3′-fluoro-N-(2-hydroxycyclohexyl)biphenyl-2-sulfonamide], for which the Ki is 1.1 nM.

Molecule `CCNS(=O)(=O)c1cc(C(F)(F)F)ccc1-c1ccc(-c2cnc(N)cn2)c(F)c1` [Example 211, 4′-(5-Aminopyrazin-2-yl)-N-ethyl-3′-fluoro-4-(trifluoromethyl)biphenyl-2-sulfonamide] showed a Ki of 0.5 nM.

`Nc1cnc(-c2ccc(-c3ccccc3S(=O)(=O)N3CC[C@@H](O)C3)cc2F)cn1` [Example 185, (3R)-1-{[4′-(5-Aminopyrazin-2-yl)-3′-fluoroblphenyl-2-yl]sulfonyl}pyrrolidin-3-ol] returned a Ki of 9.5 nM.

On to `CC(NS(=O)(=O)c1ccccc1-c1ccc(-c2cnc(N)cn2)c(F)c1)C(F)(F)F` (racemic) [Example 8, (racemic)-4′-(5-Aminopyrazin-2-yl)-3′-fluoro-N-(2,2,2-trifluoro-1-methylethyl)biphenyl-2-sulfonamide racemic], for which the Ki was 1.3 nM.

The molecule `Nc1cnc(-c2ccc(-c3ccccc3Sc3ccnc(N)n3)cc2F)cn1` [Example 242, 4-{[4′(5-Aminopyrazin-2-yl)-3′-fluorobiphenyl-2-yl]sulfanyl}pyrimidin-2-amine hydrochloride] showed a Ki of 0.7 nM.

With `Nc1cnc(-c2ccc(-c3ccccc3S(=O)(=O)NCCCO)cc2F)cn1` [Example 80, 4′-(5-Aminopyrazin-2-yl)-3′-fluoro-N-(3-hydroxypropyl)biphenyl-2-sulfonamide], the Ki is 3.9 nM.

As for `Nc1cnc(-c2ccc(-c3ccccc3S(=O)(=O)NCCCCCO)cc2F)cn1` [Example 132, 4′-(5-Aminopyrazin-2-yl)-3′-fluoro-N-(5-hydroxypentyl)biphenyl-2-sulfonamide], the Ki was determined as 2.4 nM.

Turning to `Nc1cnc(-c2ccc(-c3ccccc3Sc3nccc(N)n3)cc2F)cn1` [Example 216, 2-{1,4′-(5-Aminopyrazin-2-yl)-3′-fluorobiphenyl-2-yl]sulfanyl}pyrimidin-4-amine hydrochloride], the Ki came to 2.2 nM.

Consider `Nc1cnc(-c2ccc(-c3ccccc3S(=O)(=O)N[C@@H]3CCCC[C@H]3O)cc2F)cn1` [Example 85, 4′-(5-Aminopyrazin-2-yl)-3′-fluoro-N-[(1R,2R)-2-hydroxycyclohexyl]biphenyl-2-sulfonamide], for which the Ki amounted to 1.9 nM.

Regarding `Nc1cnc(-c2ccc(-c3ccccc3S(=O)(=O)N3CCc4[nH]ncc4C3)cc2F)cn1` [Example 128, 5-[3-Fluoro-2′-(1,4,6,7-tetrahydro-5H-pyrazolo[4,3-c]pyridin-5-ylsulfonyl)biphenyl-4-yl]pyrazin-2-amine], the Ki was found to be 0.8 nM.

In turn, `CC(=O)NC1CCN(S(=O)(=O)c2ccccc2-c2ccc(-c3cnc(N)cn3)c(F)c2)CC1` [Example 75, N-(1-{[4′-(5-Aminopyrazin-2′yl)-3′-fluorobiphenyl-2-yl]sulfonyl}piperidin-4-yl)acetamide] displayed a Ki of 10.7 nM.

Still in this assay, the particulars now being: human FLAP wild type, Table 6 (additional runs).
The molecule `CC(C)(C)NS(=O)(=O)c1ccccc1-c1ccc(-c2cnc(N)c(F)c2)c(F)c1` [Example 430, 4′-(6-Amino-5-fluoropyridin-3-yl)-N-tert-butyl-3′-fluorobiphenyl-2-sulfonamide] registered a Ki of 5.1 nM.

Consider `CC(C)(C)NS(=O)(=O)c1ccccc1-c1ccc(-c2cnc(N)cn2)c(F)c1F` [Example 462, 4′-(5-Aminopyrazin-2-yl)-N-tert-butyl-2′,3′-difluorobipnenyl-2-sulfonamide], for which the Ki is 2.3 nM.

The molecule `Nc1cnc(Oc2ccccc2-c2ccc(-c3cnc(N)cn3)c(F)c2)nc1` [Example 614, 2-{[4′-(5-Aminopyrazin-2-yl)-3′-fluorobiphenyl-2-yl]oxy}pyrimidin-5-amine] yielded a Ki of 9.8 nM.

The molecule `CNS(=O)(=O)c1ccccc1-c1ccc(-c2cnc3[nH]cc(CO)c3c2)c(F)c1` [Example 457, 3′-Fluoro-4′-[3-(hydroxymethyl)-1H-pyrrolo[2,3-b]pyridin-5-yl]-N-methylbiphenyl-2-sulfonamide] returned an inhibition constant (Ki) of 2.7 nM.

In the case of `C[C@H]1CN(C(=O)c2ccccc2-c2ccc(-c3cnc(N)nc3)c(F)c2)CCO1` [Example 777, 5-(3-Fluoro-2′-{[(2S)-2-methylmorpholin-4-yl]carbonyl}biphenyl-4-yl)pyrimidin-2-amine], affinity was put at a Ki of 1620 nM.

On to `Nc1cnc(-c2ccc(-c3ccccc3Oc3ccnc(N)n3)cc2F)cn1` [Example 533, 4-{[4′-(5-Aminopyrazin-2-yl)-3′-fluorobiphenyl-2-yl]oxy}pyrimidin-2-amine], for which the affinity, expressed as Ki, was 4.5 nM.

Turning to `CC(C)(C)NS(=O)(=O)c1ccccc1-c1ccc(-c2cnc(N)c(Cl)c2)c(F)c1` [Example 451, 4′-(6-Amino-5-chloropyridin-3-yl)-N-tert-butyl-3′-fluorobiphenyl-2-sulfonamide trifluoroacetic acid salt], the Ki is 2.4 nM.

In turn, `CC(C)(C)NS(=O)(=O)c1ccccc1-c1ccc(-c2nnc(N)s2)c(F)c1` [Example 438, 4′-(5-amino-1,3,4-thiadiazol-2-yl)-N-(tert-butyl)-3′-fluoro-[1,1′-biphenyl]-2-sulfonamide] displayed a Ki of 0.7 nM.

Still in this assay, the particulars now being: human FLAP wild type, a calculated value of 0.000 indicates Ki less than 1 nM.
Take `CC(C)(CCO)NS(=O)(=O)c1ccccc1-c1ccc(-c2cnc(N)cn2)c(F)c1` [Example 102, 4′-(5-Aminopyrazin-2-yl)-3′-fluoro-N-(3-hydroxy-1,1-dimethylpropyl)biphenyl-2-sulfonamide]: the Ki is less than 1 nM.

As for `Nc1cnc(-c2ccc(-c3ccccc3S(=O)(=O)N3c4ccccc4C[C@H]3CO)cc2F)cn1` [Example 135, (S)-(1-{[4′-(5-Aminopyrazin-2-yl)-3′-fluorobiphenyl-2-yl]sulfonyl}-2,3-dihydro-1H-indol-2-yl)methanol], the Ki is less than 1 nM.
